One assay has as its system E. coli CVCC25922. Type of assay: cell-based, Escherichia coli. The method, then: (§1) The MIC was determined according to the method developed by Clinical and Laboratory Standards Institute (CLSI). The strains were cultured in Mueller–Hinton Broth medium (MHB) at the appropriate temperature until mid-log phase. A series of two-fold dilutions of N6 and PEGylated N6 (10 μL) and bacterial suspension (1 × 10^5 CFU/mL, 90 μL) were added into 96-well plates and incubated at 37 °C for 18 – 24 h. PBS and MHB were used as the negative and blank control, respectively. All assays were conducted in triplicate.

A further assay relates to E. coli CVCC195. Format: cell-based, Escherichia coli. The protocol: as §1
The test system of the next assay is E. coli ATCCO157. Format: cell-based, Escherichia coli. The conditions noted are these: MHB, 1 × 10^5 CFU/mL, 37 °C, 18 – 24 h, triplicate. The method, then: as §1
For a further assay, the system named is E. coli CVCC1515. Type of assay: cell-based, Escherichia coli. The method, then: as §1
The subject of the next assay is P. aeruginosa CICC21630. Type of assay: cell-based. The protocol:
as §1

The subject of a further assay is S. aureus ATCC546. Type of assay: cell-based. The method, then:
as §1

For the next assay, the system named is S. aureus ATCC43300. Type of assay: cell-based. The protocol:
as §1

A further assay has as its system S. typhimurium ATCC14028. Format: cell-based. The protocol:
as §1

For another assay, the system named is S. aureus ATCC25923. Type of assay: cell-based. The method, then:
as §1

The next assay has as its system S. enteritidis CVCC3377. Format: cell-based. The method, then: as §1
A further assay has as its system S. hyicus NCTC10350. Type of assay: cell-based. The method, then: as §1
For another assay, the system named is C. albicans CMCC98001. Type of assay: cell-based, Candida albicans. The method, then:
as §1

The next assay has as its system S. pullorum CVCC1789. Type of assay: cell-based, Salmonella pullorum. The protocol:
as §1

The next assay concerns S. pullorum CVCC533. Format: cell-based, Salmonella pullorum. The method, then: as §1
In another assay the test system is S. pullorum CVCC1802. Type of assay: cell-based, Salmonella pullorum. The protocol: as §1

SMILES strings stand for the structures. ≈ marks a conversion by molar mass, not a printed value. Bridge positions count the residues as written; N and C are the ends. Square brackets hold non-standard residues; d marks the D form. Peptide text beside a SMILES is read from it. AEEA = NCCOCCOCC(=O)O

The MIC is the smallest concentration in the dilution series that meets the test's criterion for growth inhibition. A lower MIC goes with inhibition by little substance.

For `CC(C)[C@@H]1NC(=O)CNC(=O)[C@H](CC(N)=O)NC(=O)[C@H](CCCNC(=N)N)NC(=O)[C@H](Cc2ccc(O)cc2)NC(=O)[C@H](C(C)C)NC(=O)[C@@H](NC(=O)[C@@H](NC(=O)[C@H](CC(N)=O)NC(=O)[C@H](Cc2c[nH]c3ccccc23)NC(=O)[C@H](C)NC(=O)[C@H](Cc2ccccc2)NC(=O)CNC(=O)COCCOCCN)C(C)C)CSSC[C@@H](C(=O)N[C@@H](Cc2c[nH]cn2)C(=O)N[C@@H](CCCNC(=N)N)C(=O)N[C@@H](CCCNC(=N)N)C(=O)N[C@@H](C)C(=O)N[C@@H](CC(N)=O)C(=O)O)NC(=O)[C@H](C(C)C)NC(=O)[C@H](CCCNC(=N)N)NC1=O` [N6-NH2-miniPEG] (H-[AEEA]GFAWNVCVYRNGVRVCHRRAN-OH; disulfide 8-17), the MIC in the assay on E. coli CVCC25922 was determined as 3.05 µM (≈ 7.99 µg/mL); against E. coli CVCC195, 6.1 µM (≈ 16 µg/mL); against E. coli ATCCO157, 6.10 µM (≈ 16 µg/mL); with E. coli CVCC1515 it was 6.1 µM (≈ 16 µg/mL); against P. aeruginosa CICC21630, 24.42 µM (≈ 64 µg/mL); against S. aureus ATCC546, 48.84 µM (≈ 128 µg/mL). Also, the minimum inhibitory concentration (MIC) with S. aureus ATCC43300 was 48.84 µM (≈ 128 µg/mL); with S. typhimurium ATCC14028 it was 6.10 µM (≈ 16 µg/mL); in the assay on S. aureus ATCC25923, over 48.84 µM; in the assay on S. enteritidis CVCC3377, 6.10 µM (≈ 16 µg/mL); in the assay on S. hyicus NCTC10350, over 48.84 µM; with C. albicans CMCC98001, over 48.84 µM. Besides, the results for the MIC in the assay on S. pullorum CVCC1789, with S. pullorum CVCC533 and against S. pullorum CVCC1802 were 6.10 µM (≈ 16 µg/mL), 12.21 µM (≈ 32 µg/mL) and 6.10 µM (≈ 16 µg/mL), respectively.
